The nature of the data set: SPECT and PET imaging biodistribution in mice. Type of data set: in vivo, BALB/c mice. On the procedure: For in vivo imaging and stability studies, ^117Sb was produced in 0.5 M NH4OAc at the University of Wisconsin-Madison and experiments were conducted the same day. 2 mL of ^117Sb in 0.5 M NH4OAc pH 4 solution was combined with 220 μL of 10 mM TRENCAM in 20% DMSO solution and heated to 80° C. for 1 h. Quantitative radiolabeling was confirmed via TLC. A 1:5 dilution of the radiolabeling solution with DI H2O was performed before passing it through a C8 Sep-Pak® cartridge (Waters, Milford, MA, USA), preconditioned with 5 mL EtOH and 5 mL H2O) to trap the [^117Sb]Sb-TRENCAM complex. The cartridge was rinsed with 1 mL H2O to remove NH4OAc buffer and unchelated ^117/119Sb, and then the [^117Sb]Sb-TRENCAM complex was eluted with EtOH and collected dropwise. […]
Two groups of healthy 3-month-old male BALB/c mice (n=3) ([…]) were injected with 150 μL ^117Sb solutions. […] In both cases, scanner calibration occurred by imaging vials of ^117Sb activity and correlating image signal strength to activity measured via High Purity Germanium (HPGe) gamma spectroscopy. […] Using co-registered CT images, manual volume-of-interest delineation of tissues allowed activity biodistribution measurement, as expressed as percent injected activity per gram of tissue (% IA/g), using either Inveon Research Workstation (Siemens) for PET VOI analysis or Imalytics 3.0 (MILabs) for SPECT VOI analysis. […]

Structures are written as SMILES.

Consider `[OH][Sb-]([OH])([OH])([OH])([OH])[OH]` [[^117Sb]Sb(OH)6^−], for which the “uptake in bone (PET images)” value (PET 150 min post injection) was “uptake”. In addition, the “clearance route and organ uptake by PET and SPECT imaging” value (tail vein injection, imaged 20-240 min post injection) is on record as “renal clearance with liver accumulation”.

These data come from patent US20250082794A1, “ANTIMONY CHELATES FOR TARGETED AUGER THERAPY AND IMAGING DIAGNOSTICS” (Wisconsin Alumni Research Foundation, priority 2023, published 2025).
